# From patent US10588280B2, “Aided delivery of plant treatment agents” (Monsanto Technology LLC, priority 2014, dated 2020)
# Columns and labels:
# [1] = test system: haploid maize seedlings (shoot meristem); assay: Example 1: single unsubmerged centrifugation after colchicine soak, chromosome doubling success; format: in vivo; conditions: 1250 ppm colchicine 10 min soak, unsubmerged spin 335 g 3 min
# Source text: Corn seeds of four different maize F1 hybrid-derived haploid induction populations were used in this experiment; two of the populations, Male 1 and Male 2, were derived from two different male inbred lines and the remaining two populations, Female 1 and Female 2, were derived from two different female inbred lines. Seeds of each germplasm were germinated in soil and the subsequent seedlings tended in a greenhouse under standard maize growing conditions until the seedlings reached the V1 to V2 growth stages.
# Next, several randomly-selected seedlings of each germplasm were then removed from the soil, washed to remove residual soil and then subjected to a contacting step which included soaking the seedlings for 10 minutes in a liquid doubling agent comprising 1250 ppm colchicine.
# After the contacting step, seedlings were bundled in a PCS with wooden rods, similar to that described in FIG. 9. The seedlings and rods were wrapped tightly together with several layers of aluminum foil. Care was taken to wrap the seedlings tightly, but not so tight as to damage the tissues of the seedling. The folds and layers of the wrap were arranged such that any liquid agent still clinging to the surface of the plant would not be trapped inside the wrap during centrifugation.
# Once arranged in the centrifuge, seedlings were subjected to an unsubmerged centrifugation at 335 g for 3 min.
# After centrifugation, the seedlings were removed from the centrifuge container, rinsed with water to remove any remaining plant treatment agent, and then transplanted into 10-inch pots in a growth room where they were tended under standard maize growing conditions until they grew to maturity and flowered.
# Self-pollinations were attempted with each plant that survived the treatment to produce pollen and during the ensuing growth the pollination success, fertilization success and final doubling efficiency were determined within each sample.
# Control samples of several randomly-selected seedlings from each germplasm received no exposure to the plant treatment agent, but were otherwise handled identically as their treated counterparts.
# [2] = test system: haploid corn seedlings (SAM); assay: Example 3: serial (submerged then unsubmerged) centrifugation with colchicine, survival and doubling success; format: in vivo; conditions: for DE / Fert. Success / Initial Survival / Poll. Success: 1000 ppm colchicine, submerged 50 g 3 min then unsubmerged 335 g 3 min
# Source text: Seeds of 5 different F1 hybrid-derived haploid corn lines were randomly-selected and germinated in a greenhouse. The resulting seedlings were removed from soil or growth media at the V1-V3 growth stage and the soil or growth media rinsed from the plants with water. Seedlings were then aligned and assembled along with several rods in a bundled PCS similar to what is shown in FIG. 9 and a plant treatment solution comprising 1000 ppm colchicine was poured into the container such that the solution submerged the SAM of each plant and then the entire sample was centrifuged at 50 g for 3 min while the SAMs remained submerged in the plant treatment agent.
# Following the first centrifugation, the plant treatment solution was decanted and the seedlings subjected to an unsubmerged centrifugation at 335 g for 3 min.
# Following the second centrifugation, the plants were removed from the centrifugation container and rinsed with water to remove any remaining colchicine solution, and then recovered and tended in a light, humidity, and temperature-controlled greenhouse for several days before being transplanted to a nursery greenhouse.
# The control sample received no colchicine exposure, but was otherwise handled identically as the experimental samples. During the subsequent growth of the plants, the initial survival, pollination success, fertilization success, final survival, and doubling efficiency was determined within each sample as described in Example 2.
# haploid corn seedlings = assay: Example 5: field transplanting survival after single or serial spin with colchicine; format: in vivo; conditions: for 3-wk Survival (field transplanting): 50 g
# Description: Haploid corn seedlings derived from a cross between commercial inbred 01DKD2 and the inducer KHI1 or commercial inbred 83IDI1 and KHI1 were treated by either single spin or serial spin centrifugation methods and recovered in a light, moisture, and temperature controlled environment for approximately 15 hours. Plants were then transplanted into a field and tended for three weeks, after which plant survival rates were assessed (Table 5).
# [3] = test system: seedlings of inbred lines 83IDI1 or 91DUQ1; assay: Example 10: seedling survival after unsubmerged centrifugation for 3 or 180 min with colchicine; format: in vivo; conditions: 1250 ppm colchicine submerged 50 g 3 min, after one week
# Description: Seedlings of one of two genetically diverse inbred lines (83IDI1 or 91DUQ1) were germinated in a greenhouse and removed from soil or growth media at the V1-V3 growth stage and rinsed with water to remove residual soil. All seedlings were then secured in PCSs comprising wraps and rods, like that shown in FIG. 9, and subjected to a submerged spin at 50 g in a liquid treatment solution comprising 1250 ppm colchicine for 3 min.
# Following the first, submerged centrifugation, the plant treatment solution was decanted and the bundled seedlings were subjected to an unsubmerged centrifugation at 340 g for either 3 or 180 min.
# Following the second centrifugation, the plants were removed from the centrifugation container and rinsed with water to remove any remaining colchicine solution, and then recovered and tended in a light, humidity, and temperature-controlled greenhouse for one week, then the number of plants surviving were counted to determine the survival rate within each treatment.
# seedlings = conditions: cited from earlier work
structure (smiles),measurement,setting,value
COc1cc2c(c(OC)c1OC)-c1ccc(OC)c(=O)cc1[C@@H](NC(C)=O)CC2 [colchicine],DE (doubling efficiency),[1]; Female1,42%
same,Fertilization Successes,"[1]; Female1, 19 plants treated",8
same,Pollination Successes,"[1]; Female1, 19 plants treated",10
same,DE (doubling efficiency),[1]; Female2,50%
same,Fertilization Successes,"[1]; Female2, 8 plants treated",4
same,Pollination Successes,"[1]; Female2, 8 plants treated",6
same,DE (doubling efficiency),[1]; Male1,71%
same,Fertilization Successes,"[1]; Male1, 14 plants treated",10
same,Pollination Successes,"[1]; Male1, 14 plants treated",13
same,DE (doubling efficiency),[1]; Male2,67%
same,Fertilization Successes,"[1]; Male2, 15 plants treated",10
same,Pollination Successes,"[1]; Male2, 15 plants treated",12
same,DE,[2]; Ave: of five lines,72%
same,Fert. Success,[2]; Ave: of five lines,94%
same,Initial Survival,[2]; Ave: of five lines,93%
same,Poll. Success,[2]; Ave: of five lines,85%
same,DE,[2]; line F1004,57%
same,Fert. Success,[2]; line F1004,100%
same,Initial Survival,[2]; line F1004,93%
same,Poll. Success,[2]; line F1004,62%
same,DE,[2]; line F1045,75%
same,Fert. Success,[2]; line F1045,100%
same,Initial Survival,[2]; line F1045,100%
same,Poll. Success,[2]; line F1045,75%
same,DE,[2]; line F1095,80%
same,Fert. Success,[2]; line F1095,92%
same,Initial Survival,[2]; line F1095,100%
same,Poll. Success,[2]; line F1095,87%
same,DE,[2]; line F1118,60%
same,Fert. Success,[2]; line F1118,86%
same,Initial Survival,[2]; line F1118,70%
same,Poll. Success,[2]; line F1118,100%
same,DE,[2]; line F1900,90%
same,Fert. Success,[2]; line F1900,90%
same,Initial Survival,[2]; line F1900,100%
same,Poll. Success,[2]; line F1900,100%
same,individuals that produced pollen and silks,[2]; minimum over all five inbred samples receiving the experimental treatment,at least 62%
same,increase in overall DE as compared to controls,[2]; samples receiving serial centrifugation with 1000 ppm colchicine vs controls,67%
same,3 week post transplanting survival rate,"haploid corn seedlings; either haploid line, regardless of colchicine concentration or second spin",higher than 80%
same,3-wk Survival (field transplanting),"haploid corn seedlings; haploid parent 01DKD2, 1000 ppm colchicine, submerged 10 min, no second spin",94%
same,3-wk Survival (field transplanting),"haploid corn seedlings; haploid parent 01DKD2, 1250 ppm colchicine, submerged 3 min, unsubmerged 3 min, 335 g",89%
same,3-wk Survival (field transplanting),"haploid corn seedlings; haploid parent 83IDI1, 1000 ppm colchicine, submerged 10 min, no second spin",81%
same,3-wk Survival (field transplanting),"haploid corn seedlings; haploid parent 83IDI1, 1250 ppm colchicine, submerged 3 min, unsubmerged 3 min, 335 g",83%
same,Survival,"[3]; pedigree 83IDI1, unsubmerged 340 g for 3 minutes",93%
same,Survival,"[3]; pedigree 83IDI1, unsubmerged 340 g for 180 minutes",94%
same,Survival,"[3]; pedigree 91DUQ1, unsubmerged 340 g for 3 minutes",95%
same,Survival,"[3]; pedigree 91DUQ1, unsubmerged 340 g for 180 minutes",96%
same,average success rate,"seedlings; Eder and Chalyk (2002), procedure of Deimling et al.: 0.06% colchicine and DMSO, 12 hours, dark room, range of genotypes",~50%
same,doubling rate,"seedlings; Gayen et al. (1994): coleoptile tips removed, extended (6+ hours) soak, colchicine 0.1% or less",18.05%
